Experimental data as given in PMC5439695 (PLoS ONE, 2017).
Structures can show the parent of a compound that is named as a salt. Where two headings read alike, the source gives them in different places.

Tests used:
estrogen receptor (ER) = settings: cited from earlier work; for AUC score in Judson 2015: ER antagonist, ToxCast chemicals only, ref Judson 2015; for ER antagonist AUC score: pathway-level model using all Tox21/ToxCast ER assays of 1812 ToxCast chemicals
[1] = system: HEK293 and HepG2 cell lines
HEK293 cells [2] = settings: HEK293 flor
HepG2 cells [3] = assay: CellTox Green Cytotoxicity Assay (flor) in HepG2, HepG2[flor]; type: cell-based, human; settings: HepG2 flor;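 on hepg2 flor emax 0: percent activity versus DMSO-only wells with baseline rescaled to 0%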;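 on hepg2 flor emax 40: percent activity versus DMSO-only wells with baseline rescaled to 0%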
HepG2 cells [4] = settings: HepG2 glo
HEK293 cells [5] = settings: HEK293 glo
[6] = POD potency, max over real-time cytotoxicity assays
[7] = POD potency, median over real-time cytotoxicity assays
Wherever hek293 flor emax 0 is given: unit not given here.

O=C(c1ccc(OCCN2CCCCC2)cc1)c1c(-c2ccc(O)cc2)sc2cc(O)ccc12 [Raloxifene hydrochloride]
AUC score in Judson 2015 (estrogen receptor (ER)): 0.671

CC/C(=C(\c1ccccc1)c1ccc(OCCN(C)C)cc1)c1ccccc1 [Tamoxifen citrate]
AUC score in Judson 2015 (estrogen receptor (ER)): 0.546

CC/C(=C(\c1ccc(O)cc1)c1ccc(OCCN(C)C)cc1)c1ccccc1 [4-Hydroxytamoxifen]
AUC score in Judson 2015 (estrogen receptor (ER)): 0.686

C[C@@]1(c2ccc(Oc3ccccc3)cc2)OC(=O)N(Nc2ccccc2)C1=O (racemic) [Famoxadone]
AUC score in Judson 2015 (estrogen receptor (ER)): 0.000714

CCC(C)(C)c1ccc(O)c(C(C)(C)CC)c1 [2,4-Bis(2-methylbutan-2-yl)phenol]
AUC score in Judson 2015 (estrogen receptor (ER)): 0.00113

CC(C)(C)c1ccc(O)c(C(C)(C)C)c1 [2,4-Di-tert-butylphenol]
AUC score in Judson 2015 (estrogen receptor (ER)): 0

Dodecylphenol
Cyto(realtime)_max [1, 6]: 5.05 log10(M)*-1 | Cyto(realtime)_median [1, 7]: 4.56 log10(M)*-1 | AUC score in Judson 2015 (estrogen receptor (ER)): 0

CC(C)C1CCC(Cc2ccc(Cl)cc2)C1(O)Cn1cncn1 (stereo not drawn) [Ipconazole]
AUC score in Judson 2015 (estrogen receptor (ER)): 0.0166

CC(C)c1cccc(C(C)C)c1N1C(=O)c2ccc(O)cc2C1=O [5HPP-33]
Cyto(realtime)_max [1, 6]: 4.71 log10(M)*-1 | Cyto(realtime)_median [1, 7]: 4.30 log10(M)*-1 | AUC score in Judson 2015 (estrogen receptor (ER)): 0

CC(C)(C)c1cc(/C=C2\SC(N)=NC2=O)cc(C(C)(C)C)c1O [Darbufelone mesylate]
AUC score in Judson 2015 (estrogen receptor (ER)): 0

CCCCCCCCCCCCOC(=O)c1cc(O)c(O)c(O)c1 [dodecyl gallate]
AUC score in Judson 2015 (estrogen receptor (ER)): 0.0773 | ER antagonist AUC score (estrogen receptor (ER)): higher than 0.01

O=C(O)c1ccccc1O.Oc1cccc2cccnc12 [8-Quinolinol Salicylic acid (1:1)]
hek293_flor_auc (HEK293 cells [2]): 0 | hek293_flor_time (HEK293 cells [2]): 48 | hek293_flor_bin (HEK293 cells [2]; kinetics bin): inactive | hek293_flor_emax_0 (HEK293 cells [2]; time point 0): 0 | hek293_flor_pod_0 (HEK293 cells [2]; time point 0): -4.417 | hek293_flor_wauc_0 (HEK293 cells [2]; time point 0): 0 | hek293_flor_emax_8 (HEK293 cells [2]; time point 8): 0 | hek293_flor_pod_8 (HEK293 cells [2]; time point 8): -4.417 | hek293_flor_wauc_8 (HEK293 cells [2]; time point 8): 0 | hek293_flor_emax_16 (HEK293 cells [2]; time point 16): 0 | hek293_flor_pod_16 (HEK293 cells [2]; time point 16): -4.417 | hek293_flor_wauc_16 (HEK293 cells [2]; time point 16): 0 | hek293_flor_emax_24 (HEK293 cells [2]; time point 24): 0 | hek293_flor_pod_24 (HEK293 cells [2]; time point 24): -4.417 | hek293_flor_wauc_24 (HEK293 cells [2]; time point 24): 0 | hek293_flor_emax_32 (HEK293 cells [2]; time point 32): 0 | hek293_flor_pod_32 (HEK293 cells [2]; time point 32): -4.417 | hek293_flor_wauc_32 (HEK293 cells [2]; time point 32): 0 | hek293_flor_emax_40 (HEK293 cells [2]; time point 40): 0 | hek293_flor_pod_40 (HEK293 cells [2]; time point 40): -4.417 | hek293_flor_wauc_40 (HEK293 cells [2]; time point 40): 0 | hepg2_flor_auc (HepG2 cells [3]): 0 | hepg2_flor_time (HepG2 cells [3]): 48 | hepg2_flor_bin (HepG2 cells [3]; kinetics bin): inactive | hepg2_flor_emax_0 (HepG2 cells [3]; time point 0): 0 | hepg2_flor_pod_0 (HepG2 cells [3]; time point 0): -4.417 | hepg2_flor_wauc_0 (HepG2 cells [3]; time point 0): 0 | hepg2_flor_emax_8 (HepG2 cells [3]; time point 8): 0 | hepg2_flor_pod_8 (HepG2 cells [3]; time point 8): -4.417 | hepg2_flor_wauc_8 (HepG2 cells [3]; time point 8): 0 | hepg2_flor_emax_16 (HepG2 cells [3]; time point 16): 0 | hepg2_flor_pod_16 (HepG2 cells [3]; time point 16): -4.417 | hepg2_flor_wauc_16 (HepG2 cells [3]; time point 16): 0 | hepg2_flor_emax_24 (HepG2 cells [3]; time point 24): 0 | hepg2_flor_pod_24 (HepG2 cells [3]; time point 24): -4.417 | hepg2_flor_wauc_24 (HepG2 cells [3]; time point 24): 0 | hepg2_flor_emax_32 (HepG2 cells [3]; time point 32): 0 | hepg2_flor_pod_32 (HepG2 cells [3]; time point 32): -4.417 | hepg2_flor_wauc_32 (HepG2 cells [3]; time point 32): 0 | hepg2_flor_emax_40 (HepG2 cells [3]; time point 40): 0 | hepg2_flor_pod_40 (HepG2 cells [3]; time point 40): -4.417 | hepg2_flor_wauc_40 (HepG2 cells [3]; time point 40): 0 | hepg2_glo_auc (HepG2 cells [4]): 0 | hepg2_glo_time (HepG2 cells [4]): 48 | hepg2_glo_bin (HepG2 cells [4]; kinetics bin): inactive | hepg2_glo_emax_0 (HepG2 cells [4]; time point 0): 0 | hepg2_glo_pod_0 (HepG2 cells [4]; time point 0): -4.417 | hepg2_glo_wauc_0 (HepG2 cells [4]; time point 0): 0 | hepg2_glo_emax_8 (HepG2 cells [4]; time point 8): 0 | hepg2_glo_pod_8 (HepG2 cells [4]; time point 8): -4.417 | hepg2_glo_wauc_8 (HepG2 cells [4]; time point 8): 0 | hepg2_glo_emax_16 (HepG2 cells [4]; time point 16): 0 | hepg2_glo_pod_16 (HepG2 cells [4]; time point 16): -4.417 | hepg2_glo_wauc_16 (HepG2 cells [4]; time point 16): 0 | hepg2_glo_emax_24 (HepG2 cells [4]; time point 24): 0 | hepg2_glo_pod_24 (HepG2 cells [4]; time point 24): -4.417 | hepg2_glo_wauc_24 (HepG2 cells [4]; time point 24): 0 | hepg2_glo_emax_32 (HepG2 cells [4]; time point 32): 0 | hepg2_glo_pod_32 (HepG2 cells [4]; time point 32): -4.417 | hepg2_glo_wauc_32 (HepG2 cells [4]; time point 32): 0 | hepg2_glo_emax_40 (HepG2 cells [4]; time point 40): 0 | hepg2_glo_pod_40 (HepG2 cells [4]; time point 40): -4.417 | hepg2_glo_wauc_40 (HepG2 cells [4]; time point 40): 0 | information [1]: 0 | hek293_glo_auc (HEK293 cells [5]): 0 | hek293_glo_time (HEK293 cells [5]): 48 | hek293_glo_bin (HEK293 cells [5]; kinetics bin): inactive | hek293_glo_emax_0 (HEK293 cells [5]; time point 0): 0 | hek293_glo_pod_0 (HEK293 cells [5]; time point 0): -4.417 | hek293_glo_wauc_0 (HEK293 cells [5]; time point 0): 0 | hek293_glo_emax_8 (HEK293 cells [5]; time point 8): 0 | hek293_glo_pod_8 (HEK293 cells [5]; time point 8): -4.417 | hek293_glo_wauc_8 (HEK293 cells [5]; time point 8): 0 | hek293_glo_emax_16 (HEK293 cells [5]; time point 16): 0 | hek293_glo_pod_16 (HEK293 cells [5]; time point 16): -4.417 | hek293_glo_wauc_16 (HEK293 cells [5]; time point 16): 0 | hek293_glo_emax_24 (HEK293 cells [5]; time point 24): 0 | hek293_glo_pod_24 (HEK293 cells [5]; time point 24): -4.417 | hek293_glo_wauc_24 (HEK293 cells [5]; time point 24): 0 | hek293_glo_emax_32 (HEK293 cells [5]; time point 32): 0 | hek293_glo_pod_32 (HEK293 cells [5]; time point 32): -4.417 | hek293_glo_wauc_32 (HEK293 cells [5]; time point 32): 0 | hek293_glo_emax_40 (HEK293 cells [5]; time point 40): 0 | hek293_glo_pod_40 (HEK293 cells [5]; time point 40): -4.417 | hek293_glo_wauc_40 (HEK293 cells [5]; time point 40): 0

Clc1ccccc1C(c1ccccc1)(c1ccccc1)n1ccnc1 [Clotrimazole, reference compound]
AUC score in Judson 2015 (estrogen receptor (ER)): 0.00844

CCCCC(O)(Cn1cncn1)c1ccc(Cl)cc1Cl (stereo not drawn) [Hexaconazole]
AUC score in Judson 2015 (estrogen receptor (ER)): 0.00822

OC(c1ccc(Cl)cc1)(c1cncnc1)c1ccccc1Cl (stereo not drawn) [Fenarimol]
AUC score in Judson 2015 (estrogen receptor (ER)): 0.000907

CC/C(=C(\c1ccccc1)c1ccc(OCCN(C)C)cc1)c1ccccc1 [Tamoxifen]
Cyto(realtime)_median [1, 7]: 4.64 log10(M)*-1 | AUC score in Judson 2015 (estrogen receptor (ER)): 0.447

CCCCNC(=O)OCC#CI [3-Iodo-2-propynyl-N-butylcarbamate]
Cyto(realtime)_max [1, 6]: 5.74 log10(M)*-1 | Cyto(realtime)_median [1, 7]: 4.62 log10(M)*-1 | AUC score in Judson 2015 (estrogen receptor (ER)): 0.0283

CCCCCCCCOC(=O)c1cc(O)c(O)c(O)c1 [octyl gallate]
AUC score in Judson 2015 (estrogen receptor (ER)): 0.0768 | ER antagonist AUC score (estrogen receptor (ER)): higher than 0.01

CN[C@H]1CC[C@@H](c2ccc(Cl)c(Cl)c2)c2ccc(S(N)(=O)=O)cc21 [UK-373911]
Cyto(realtime)_max [1, 6]: 5.12 log10(M)*-1 | Cyto(realtime)_median [1, 7]: 4.70 log10(M)*-1 | AUC score in Judson 2015 (estrogen receptor (ER)): 6.68e-8

O=C1C2CC=CCC2C(=O)N1SC(Cl)(Cl)Cl (stereo not drawn) [Captan]
AUC score in Judson 2015 (estrogen receptor (ER)): 0

CC[C@H](c1ccc(O)cc1)[C@@H](CC)c1ccc(O)cc1 [meso-Hexestrol]
AUC score in Judson 2015 (estrogen receptor (ER)): 0

tetrabutyltin
Cyto(realtime)_max [1]: 5.64 log10(M)*-1 | Cyto(realtime)_median [1]: 5.16 log10(M)*-1 | AUC score in Judson 2015 (estrogen receptor (ER)): 0.0101 | ER antagonist AUC score (estrogen receptor (ER)): higher than 0.01
